Test results taken from PubChem BioAssay (NCI).
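48-hour exposure; five concentrations; linearly interpolated endpoints. TGI denotes the concentration required for complete inhibition of growth.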

How the values were obtained:
Experiment in all cases: NCI tumour cell line growth inhibition, 48 h
[1] = system: NCI-H23 lung
[2] = system: SF-268 CNS
[3] = system: U251 CNS
[4] = system: HT29 colon
[5] = system: 786-0 renal
[6] = system: HCT-116 colon
[7] = system: OVCAR-8 ovarian
[8] = system: UACC-62 melanoma
[9] = system: ACHN renal
[10] = system: NCI/ADR-RES ovarian
[11] = system: BT-549 breast

Row | SMILES | TGI [1] [µM] | TGI [2] [µM] | TGI [3] [µM] | TGI [4] [µM] | TGI [5] [µM] | TGI [6] [µM] | TGI [7] [µM] | TGI [8] [µM] | TGI [9] [µM] | TGI [10] [µM] | TGI [11] [µM]
1 | COc1cc(CCc2cccnc2)cc(OC)c1OC | > 100 | > 100 | > 100 | > 100 | > 100 | > 100 | > 100 | > 100 | > 100 |  | 
2 | Nc1nc(N)c2ncn(CC3CCC(CO)C3)c2n1 (centres undefined) |  | > 100 | > 100 |  | > 100 | > 100 |  | > 100 | > 100 | > 100 | 
3 | C=C(C)C(=O)CC[C@@H](C)[C@H]1[C@@H](OC2OC(CO)C(O)C(O)C2O)C[C@@]2(C)[C@@H]3C[C@H](O)C4C(C)(C)[C@@H](OC5OC(CO)C(O)C(O)C5O)CC[C@@]45C[C@@]35CC[C@]12C (some centres undefined) | > 100 | > 100 | > 100 | > 100 | > 100 | > 100 | > 100 | > 100 | > 100 | > 100 | > 100
4 | CN(C)CC(/C(Cc1ccccc1)=N\NC(=O)C[n+]1ccccc1)c1ccccc1 (centres undefined) | > 100 | > 100 | > 100 | > 100 | > 100 | > 100 | > 100 | > 100 | > 100 |  | 
5 | CC(=O)NC1C(OCc2ccccc2)OC(CO)C(O)C1OCC(=O)NC(C)C(=O)NC(CCC(=O)NCCCCNc1ccc([N+](=O)[O-])c2[nH]c3ccccc3c(=O)c12)C(N)=O (centres undefined) | > 100 | > 100 | > 100 | > 100 | > 100 | > 100 | > 100 |  | > 100 | > 100 | > 100
6 | [O-]/[N+](=C\c1ccccc1)[C@H](COCc1ccccc1)c1ccccc1 | > 100 | > 100 | > 100 | > 100 | > 100 | > 100 | > 100 |  | > 100 |  | 
7 | CC[C@@]1(O)C(=O)OCc2c1cc1n(c2=O)Cc2c-1nc1ccccc1c2/C=N\NC(=O)C(N)CC(C)C (some centres undefined) | 0.112 | 3.68 | 0.646 | > 100 | > 100 | 5.37 | 1.44 | 0.0748 |  | 0.856 | > 100
8 | O=C1c2ccccc2C2CNC1(O)c1ccccc12 (centres undefined) | > 100 | > 100 | > 100 | > 100 | > 100 | > 100 | > 100 | > 100 | > 100 | > 100 | > 100
9 | O=C(Cn1c(=O)oc2ccc(C(=O)c3ccc(F)cc3)cc21)c1ccc([N+](=O)[O-])cc1 | > 100 | > 100 | > 100 | > 100 | > 100 | > 100 | > 100 | > 100 | > 100 | > 100 | 
10 | C=C1C(=O)OC2/C=C(\C)C(OC(C)=O)C3OC3C(C)(O)CC(OC(=O)/C(C)=C/C)C12 (centres undefined) | 34.4 | 30.2 | 24.5 | 32.7 | 16.4 | 5.86 | 24.4 | 23.5 | 31.7 |  | 
11 | O=C1C(N2CCCC2)=CC(=O)c2c(O)c(N3CCCC3)c(Cl)c(O)c21 | > 10 | > 10 | > 10 | > 10 | > 10 | > 10 |  | > 10 | > 10 | > 10 | > 10
12 | O=C(COc1ccc(OCC(=O)N2C(=O)CC(=O)N(c3ccccc3)C2=S)cc1)N1C(=O)CC(=O)N(c2ccccc2)C1=S | > 100 | > 100 | > 100 | > 100 | > 100 | 60.1 |  | > 100 | > 100 | > 100 | > 100
13 | COc1cccc2c1OC1c3ccccc3OCC1C2 (centres undefined) | > 100 | > 100 | > 100 | > 100 | > 100 | > 100 | > 100 | > 100 |  | > 100 | > 100
14 | CC12CC3C(CC1SCC(=O)O2)C3(C)C (centres undefined) | > 100 | > 100 | > 100 | > 100 | > 100 | > 100 | > 100 |  | > 100 |  | 
15 | O=C(Nc1c(O)[nH]c(=S)[nH]c1=O)c1ccccn1 | > 100 | > 100 | > 100 | > 100 | > 100 | > 100 | > 100 | > 100 | > 100 |  | 
16 | CC[n+]1cnc(N)c2c(-c3ccc(Cl)cc3)cn(-c3ccc(C)cc3)c21 | 35.4 | 26.7 | 24.3 | 17.7 | 23.5 | 21.3 | 32.7 | 24.3 | 25.6 | 26.5 | 
17 | CCOC(=O)c1cnc(-n2[nH]c(C)c(CCO)c2=O)[nH]c1=O | > 100 | > 100 | > 100 | > 100 | > 100 | > 100 | > 100 | > 100 | > 100 | > 100 | 
18 | CC1(C)O[C@H]2Cn3c(c(C#N)c4ccccc43)[C@H]2O1 | > 100 | > 100 | > 100 | > 100 | > 100 | > 100 |  | > 100 | > 100 | > 100 | > 100
19 | O=C1c2ccccc2C2(O)Nc3cc(O)ccc3C12O (centres undefined) | > 100 | > 100 | > 100 | > 100 | > 100 | > 100 | > 100 | > 100 | > 100 |  | 
20 | S=c1sc2c(Cl)ncnc2n1-c1ccccc1 | 31.7 | 18.5 | 29.5 | 24.1 | 29.2 | 18.6 | 31.6 | 21.4 | 30 |  | 
21 | CCC(C)[C@H](NC(=O)[C@H](Cc1ccccc1)NC(=O)N(CC)c1ccccc1)C(=O)N[C@@H](CC(C)C)C(=O)OC (some centres undefined) | > 100 | > 100 | > 100 |  | > 100 | > 100 | > 100 | > 100 | 72.7 | > 100 | > 100
